Source: publication PMC4912613, “A broad analysis of resistance development in the malaria parasite” (Nature Communications, 2016)
Like-named read-outs stand apart in the source and are kept apart here.

What was measured:
P. falciparum strain 3D7 = test: Asexual blood stage 3H-hypoxanthine incorporation assay, 3D7; assay type: cell-based, Plasmodium falciparum
Method: (§1) The 48-h assay was carried out in a 96-well format following standard methods using the ^3H-hypoxanthine incorporation assay. The raw EC50 values corresponding to this assay can be found in Supplementary Data 3. Briefly, this assay relies on the parasite incorporation of labelled hypoxanthine that is proportional to P. falciparum growth. A culture of parasitized RBCs (0.5% parasitemia with a percentage of ring stage higher than 70% of total parasitemia, 2.0% haematocrit) in RPMI-1640, […] and 5 μM hypoxanthine was exposed to drug serial dilutions. Plates were incubated for 24 h at 37 °C, 5% CO2, 5% O2 and 90% N2. After 24 h of incubation, ^3H-hypoxanthine was added and plates were incubated for an additional 24-h period. After that, parasites were harvested on a glass fibre filter using a TOMTEC Cell Harvester 96. Filters were dried and melt-on scintillator sheets were used to determine the incorporation of ^3H-hypoxanthine. Radioactivity was measured using a microbeta counter. Data were normalized using the incorporation of the positive (parasitized RBCs without drug) and negative (same culture with artesunate at 2 μM) controls. All assays were conducted in triplicate using three independently grown cultures, and EC50 values were determined using the XLfit add-in module for Excel (version 2.3.1) from Grafit (version 5.3.1.3), where parameter h is the assay hill slope, x is the compound concentration and y is the inhibition of growth effect. The XLfit equation is: […]

[1] = tested on: CYTb-G131S (cytb G131S, parent Dd2); test: Cross-resistance EC50 assay, CYTb-G131S; assay type: cell-based, Plasmodium falciparum; settings: Plasmodium falciparum; SYBR green 72 hour assay; synchronized parasites; 384-well format; strain CYTb:G131S (Dd2 parent)
Description: To evaluate potential overlapping activity against known antimalarial drug targets, we performed dose-response studies with each compound against our assembled set of drug-resistant lines and their corresponding parents, in an asexual blood stage proliferation assay (Table 1). Comparisons were made to the drug-sensitive strain 3D7 when a parent was unavailable (TM90C2A, W2 and Dd2). As laboratories conducted EC50 assays with different strains and protocols, all comparisons were made between assays from the same laboratory and under the same assay conditions. Compounds displaying >5-fold EC50 shifts relative to the parent or sensitive strain were flagged as having potentially non-novel targets. Average fold shifts per strain ranged from 0.82 to 2.34, with a median of 1.23 indicating there was not common resistance to any one resistant clone. No resistance patterns were observed when classifying the compounds based on chemical structure, but this was not surprising given the diversity of compounds chosen. On the other hand, given that these confirmed compounds were derived from larger unconfirmed hit lists to which some filtration criteria may have been applied (for example, elimination of obvious dihydrofolate reductase inhibitors[32]), some[10][11][12][13] pre-existing bias may exist in the set. […]
Alternatively, a SYBR Green-based proliferation approach was used for the 72-h assay, as previously described. Briefly, a culture of either synchronized or asynchronous parasitized RBCs (0.3% parasitemia and 4% haematocrit) in screening medium (identical to supplemented medium above except no serum was added) was exposed to serial drug dilutions. Plates were incubated at 37 °C and gassed with 93% N2, 4% CO2 and 3% O2 for 72 h. Following incubation, 10 × SYBR Green I (Invitrogen; supplied in 10,000 × concentration) in lysis buffer ([…], 5 mM EDTA, 0.16% Saponin wt per vol and 1.6% Triton X vol per vol) was added to the wells and the plates were incubated overnight at room temperature before plate reading. EC50 assays were repeated three times, taking the average EC50 value from each assay set, and removing any outliers using a single iteration of Grubbs' test, eliminating values with z-scores above the critical z-value (α=0.05). The raw EC50 values for synchronized parasites assayed in a 384-well format are listed in Supplementary Data 4. The raw EC50 values for asynchronous parasites assayed in a 96 or 1536-well format are listed in Supplementary Data 5.
EC50 values for each strain were compared with those of the corresponding parent strain to determine fold-shift changes and identify resistance. To minimize the cause variance between assays, all comparisons were conducted between strains assayed under identical conditions. A one-way ANOVA followed by a Dunnet's post-test was conducted in GraphPad Prism to identify significant changes between the parent and resistant strain.

3D7 = test: Cross-resistance EC50 assay, 3D7 parent / sensitive strain; assay type: cell-based; settings: Plasmodium falciparum
Description: Multidrug resistance alleles, including mutations in P. falciparum chloroquine resistance transporter (pfcrt) and P. falciparum multi-drug resistance transporter 1 (pfmdr1) are very common in field isolates. Therefore, we sought to assess the degree to which pre-existing resistance alleles would contribute to a loss of potency for this diverse collection of small molecule compounds. Fifteen clones derived from three main parent lines were chosen to maximize diversity in mutated pathways and genetic backgrounds, thus representing the variety of resistance seen in the field: 3D7 (ref. [23]), W2 (ref. [24]) or Dd2 (ref. [25]). The 3D7 line originates from the clone of a Netherlands clinical isolate strain[23][26] and is generally considered to be drug sensitive, though it does convey resistance to sulfadoxine. Conversely, W2 (ref. [24], [27]) and Dd2 (ref. [25]) are multi-drug-resistant lines originating from the Indochina III/CDC isolate, which contain point mutations in pfcrt as well as amplifications in pfmdr1 and GTP cyclohydrolase.
To evaluate potential overlapping activity against known antimalarial drug targets, we performed dose-response studies with each compound against our assembled set of drug-resistant lines and their corresponding parents, in an asexual blood stage proliferation assay (Table 1). Comparisons were made to the drug-sensitive strain 3D7 when a parent was unavailable (TM90C2A, W2 and Dd2). As laboratories conducted EC50 assays with different strains and protocols, all comparisons were made between assays from the same laboratory and under the same assay conditions. Compounds displaying >5-fold EC50 shifts relative to the parent or sensitive strain were flagged as having potentially non-novel targets. Average fold shifts per strain ranged from 0.82 to 2.34, with a median of 1.23 indicating there was not common resistance to any one resistant clone. No resistance patterns were observed when classifying the compounds based on chemical structure, but this was not surprising given the diversity of compounds chosen. On the other hand, given that these confirmed compounds were derived from larger unconfirmed hit lists to which some filtration criteria may have been applied (for example, elimination of obvious dihydrofolate reductase inhibitors[32]), some[10][11][12][13] pre-existing bias may exist in the set.
as §1
Alternatively, a SYBR Green-based proliferation approach was used for the 72-h assay, as previously described. […]

[2] = Plasmodium falciparum, 3D7, asexual stage, P. falciparum 3D7, read-out: 3D7 EC50
[3] = SYBR green 72 hour assay, asynchronized parasites, 96-well or 1536-well format, 3D7 parent, read-out: 3D7 (PARENT) EC50 (µM) Average EC50
[4] = SYBR green 72 hour assay, synchronized parasites, 384-well format, strain 3D7 (parent), read-out: 3D7 (PARENT) Average EC50
[5] = hypoxanthine 48-hour assay, synchronized parasites, 96-well format, strain 3D7 (parent), read-out: 3D7 (PARENT) Average EC50
[6] = hypoxanthine 48-hour assay, synchronized parasites, 96-well format, strain 3D7-C9-WT (parent of PfATP4 Mut3), read-out: 3D7-C9-WT (PARENT) Average EC50

SMILES	EC50 (P. falciparum strain 3D7; [2])	EC50 [1]	EC50 (3D7; [3])	EC50 (3D7; [4])	EC50 (3D7; [5])	EC50 (P. falciparum strain 3D7; asexual stage, P. falciparum 3D7, read-out: 3D7 EC50)	EC50 (3D7; [6])	EC50 (P. falciparum strain 3D7; Plasmodium falciparum, 3D7, read-out: 3D7 EC50)	EC50 (3D7; 3D7, 48 h, read-out: 3D7 (PARENT) Average EC50)	EC50 (3D7; 3D7, 48 h, read-out: 3D7-C9-WT (PARENT) Average EC50)	EC50 (3D7; 3D7, 72 h, read-out: 3D7 (PARENT) Average EC50)	EC50 (3D7; 3D7, 72 h, read-out: 3D7 (PARENT) EC50 (µM) Average EC50)	EC50 (P. falciparum strain 3D7; Plasmodium falciparum, 3D7, text value, read-out: asexual stage EC50)
COCCNCC(O)Cn1c2ccc(Cl)cc2c2cc(Cl)ccc21 (stereo not drawn) [MMV019017]	480 nM	929 nM	0.537 µM	0.763 µM	0.62 µM								
COc1ccccc1CNC(=O)CCn1c(=O)[nH]c2ccsc2c1=O [MMV019066]	1670 nM	149 nM	0.007 µM	0.168 µM	1.67 µM	1670 nM	2.17 µM						
Cl.c1ccc2c(NCCCCCCNc3c4c(nc5ccccc35)CCCC4)c3c(nc2c1)CCCC3 [MMV019555]		237 nM						87.3 nM	0.087 µM	0.094 µM	0.062 µM	0.065 µM	
COc1ccc(N2CCN(C(CNC(=O)C3CCCCC3)c3ccc4c(c3)OCO4)CC2)cc1 (stereo not drawn) [MMV019662]	340 nM	583 nM	0.358 µM	0.98 µM	0.34 µM		0.81 µM						
COc1ccc(-c2nc(NC(=O)Cc3ccc4c(c3)OCCO4)sc2C)cc1 [MMV019719]	164 nM	261 nM	0.236 µM	0.2 µM	0.165 µM		0.132 µM						
Cc1ccc(Oc2ncccc2C(=O)Cc2cccc3cccnc23)c(C)c1 [MMV020746]	76 nM	327 nM	0.993 µM	0.096 µM	0.074 µM		0.093 µM						
COc1cc(-c2nc(-c3ccccc3)c(-c3ccccc3)[nH]2)cc(OC)c1O [MMV020750]	342 nM	872 nM	0.575 µM	0.597 µM	0.342 µM		0.656 µM						
CCCCCCCN(Cc1ccc(OC(C)(C)C(=O)OCC)cc1)C(=O)Nc1ccc(Cl)cc1OCC [MMV021735]	383 nM	498 nM	0.054 µM	0.383 µM	0.459 µM		0.543 µM						
CN(C)Cc1ccc(-c2cc3c(-c4ccc(CN(C)C)cc4)ccnc3[nH]2)cc1.O=C(O)C(F)(F)F [MMV022224]	388 nM	343 nM	0.224 µM	0.242 µM	0.343 µM		0.356 µM						
Nc1ncc(-c2cn[nH]c2)cc1-c1nc2ccc(F)cc2[nH]1 [MMV023367]	302 nM	710 nM	1.13 µM	0.519 µM	0.303 µM		0.269 µM						
CN(C)S(=O)(=O)c1cc(-c2ccc3nccc(-c4cccc(S(N)(=O)=O)c4)c3c2)cnc1N [MMV024038]		249 nM	0.764 µM	0.217 µM	0.174 µM		0.258 µM						228 nM
Cc1ccc(S(=O)(=O)n2cc(-c3ccnc(N)c3)c3cc(Br)cnc32)cc1 [MMV024114]	265 nM	1680 nM	1.17 µM	0.418 µM	0.264 µM		0.219 µM						
CNCc1ccc2nc(-c3coc(Cc4cc(Cl)ccc4OCC(C)C)n3)[nH]c2c1.Cl.Cl [MMV026596]	346 nM	443 nM	0.304 µM	0.321 µM	0.377 µM		0.472 µM						
COc1cc(-c2nc(-c3ccccc3)c(-c3ccccc3)[nH]2)ccc1OCCN(C)C [MMV027496]	111 nM	322 nM	0.241 µM	0.118 µM	0.112 µM		0.084 µM						
Cc1nc2ccc3ccc(CNc4ccc(C(=O)CC(CCC(=O)O)C(=O)O)cc4)cc3c2c(=O)[nH]1.Cl (stereo not drawn) [MMV027634]	23 nM	52 nM	0.148 µM	0.029 µM	0.025 µM		0.042 µM						
